Assay [1] has as its system Trypanosoma cruzi. The experiment in a line: Antiprotozoal activity against Trypanosoma cruzi epimastigotes. The format is functional, organism-based.
Assay [2] relates to Trypanosoma cruzi. The experiment in a line: Antiprotozoal activity against Trypanosoma cruzi amastigotes. Format: functional, organism-based.
Assay [3] relates to Trypanosoma cruzi. The experiment in a line: Disruption of calcium homeostasis in Trypanosoma cruzi. Format: functional, organism-based.
The target of assay [4] is lanosterol synthase / oxidosqualene cyclase (Homo sapiens) (UniProt P48449). The assay can be described thus: Inhibitory activity against oxidosqualene cyclase.
Chain of lanosterol synthase / oxidosqualene cyclase (Homo sapiens) (P48449 whole entry, looked up): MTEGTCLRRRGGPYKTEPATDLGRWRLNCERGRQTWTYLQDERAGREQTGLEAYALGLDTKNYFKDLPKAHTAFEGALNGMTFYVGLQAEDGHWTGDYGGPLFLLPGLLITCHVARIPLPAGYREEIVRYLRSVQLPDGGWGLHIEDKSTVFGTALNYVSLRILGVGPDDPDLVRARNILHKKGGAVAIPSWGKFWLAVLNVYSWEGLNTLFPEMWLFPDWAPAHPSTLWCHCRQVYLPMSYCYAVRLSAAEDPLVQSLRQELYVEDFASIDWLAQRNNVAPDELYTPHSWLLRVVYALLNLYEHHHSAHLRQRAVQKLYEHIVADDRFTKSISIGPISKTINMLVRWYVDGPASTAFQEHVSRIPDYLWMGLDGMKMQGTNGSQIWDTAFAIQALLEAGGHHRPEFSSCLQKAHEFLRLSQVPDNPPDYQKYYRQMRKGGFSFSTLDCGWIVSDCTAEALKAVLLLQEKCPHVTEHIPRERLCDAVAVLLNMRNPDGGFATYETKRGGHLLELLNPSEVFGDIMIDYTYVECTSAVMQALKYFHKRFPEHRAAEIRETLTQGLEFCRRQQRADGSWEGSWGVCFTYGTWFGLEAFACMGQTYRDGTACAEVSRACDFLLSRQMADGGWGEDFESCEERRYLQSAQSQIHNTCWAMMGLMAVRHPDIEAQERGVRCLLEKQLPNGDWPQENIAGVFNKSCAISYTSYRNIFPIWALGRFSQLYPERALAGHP
The subject of assay [5] is Trypanosoma cruzi. The experiment in a line: Ability to block ergosterol biosynthesis in Trypanosoma cruzi. Format: functional, organism-based.
Assay [6] addresses T1, Farnesyl diphosphate synthase (Trypanosoma cruzi) (UniProt Q8WS26).
T1 sequence (whole entry): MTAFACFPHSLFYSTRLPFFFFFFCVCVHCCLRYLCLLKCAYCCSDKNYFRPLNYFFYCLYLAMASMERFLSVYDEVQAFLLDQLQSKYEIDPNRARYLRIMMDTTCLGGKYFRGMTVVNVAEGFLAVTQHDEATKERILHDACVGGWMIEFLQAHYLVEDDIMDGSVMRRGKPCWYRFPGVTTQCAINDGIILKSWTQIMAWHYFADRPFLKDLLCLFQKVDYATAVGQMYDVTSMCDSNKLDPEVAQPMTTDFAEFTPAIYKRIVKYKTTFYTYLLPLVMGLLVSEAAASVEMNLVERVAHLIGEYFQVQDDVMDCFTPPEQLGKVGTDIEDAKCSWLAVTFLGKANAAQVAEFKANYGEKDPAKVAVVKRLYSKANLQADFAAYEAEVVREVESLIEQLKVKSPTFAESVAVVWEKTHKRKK
The experiment in a line: Inhibitory activity against recombinant farnesyl diphosphate synthase at 50 uM.

Converted amounts (≈) assume the structure as drawn. The source made the active and inactive calls. No cut-off for these calls is given here.

What is called IC50 is the concentration that gives 50% inhibition. High values mean weaker potency, low ones greater potency. Broadly, the MIC is the lowest concentration that inhibits growth of the organism.

Regarding `CC[C@@H]([C@H](C)O)n1ncn(-c2ccc(N3CCN(c4ccc(OC[C@@H]5CO[C@@](Cn6cncn6)(c6ccc(F)cc6F)C5)cc4)CC3)cc2)c1=O` [POSACONAZOLE], the results for the IC50 in assay [1] and in assay [2] were 14 nM and 0.25 nM, respectively. The MIC in assay [1] amounted to 0.02 µM (≈ 0.014 µg/mL); in assay [2] it was 0.003 µM (≈ 0.0021 µg/mL). The outcome in assay [3] was Active.

Take `CCCCc1oc2ccccc2c1C(=O)c1cc(I)c(OCCN(CC)CC)c(I)c1` [AMIODARONE]: the figures for the minimum inhibitory concentration (MIC) in assay [1] and in assay [2] were 20 µM (≈ 12.9 µg/mL) and 8 µM (≈ 5.16 µg/mL), respectively. Besides, in assay [4], the half-inhibitory concentration (IC50) entry was “Active”. Moreover, the result in assay [5] and in assay [3] was Active. For the same compound, the inhibition entry in assay [6] was “inactive”.

The record behind these values is ChEMBL document CHEMBL1149382 (J Med Chem, 2006).
